According to patent publication US9718828B2 (MERCK SHARP & DOHME CORP., priority 2011, dated 2017):
pIC50: −log10 of the molar value. Structures can show the parent of a compound that is named as a salt.

Each compound was assayed against hBTK (full-length BTK, 6HIS-tag cleaved) (Homo sapiens (Human), UniProt Q06187) (assay: BTK enzymatic activity, LANCE TR-FRET assay (Assay Method C)). Details: LANCE TR-FRET, 50 pM hBTK, 25 μM ATP; class 100-1000 is given as ≧100 nM-<1 μM; read-out: IC50 Btk activity values - Assay Method C.
hBTK (full-length BTK, 6HIS-tag cleaved), sequence (Q06187 whole entry): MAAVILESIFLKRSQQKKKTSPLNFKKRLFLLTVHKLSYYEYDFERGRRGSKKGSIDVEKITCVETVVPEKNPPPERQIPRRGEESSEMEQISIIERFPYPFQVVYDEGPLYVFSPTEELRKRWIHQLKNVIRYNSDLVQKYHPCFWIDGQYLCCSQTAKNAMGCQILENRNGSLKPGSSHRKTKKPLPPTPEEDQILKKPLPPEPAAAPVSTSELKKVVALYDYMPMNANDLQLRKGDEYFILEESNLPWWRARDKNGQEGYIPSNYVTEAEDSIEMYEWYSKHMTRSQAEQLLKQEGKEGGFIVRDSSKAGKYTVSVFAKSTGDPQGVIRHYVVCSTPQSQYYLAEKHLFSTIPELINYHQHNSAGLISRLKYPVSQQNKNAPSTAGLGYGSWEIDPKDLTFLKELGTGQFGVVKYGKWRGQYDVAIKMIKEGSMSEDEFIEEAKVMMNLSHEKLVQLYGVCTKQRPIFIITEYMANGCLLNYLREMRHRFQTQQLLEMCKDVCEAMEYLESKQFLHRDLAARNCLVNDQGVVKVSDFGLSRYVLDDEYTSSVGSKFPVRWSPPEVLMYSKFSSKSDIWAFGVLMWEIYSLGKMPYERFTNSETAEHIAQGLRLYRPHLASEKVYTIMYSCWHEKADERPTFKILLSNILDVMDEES
Format: biochemical

SMILES | pIC50
CC1(C(=O)N2CCO[C@@H](c3nc(-c4ccc(C(=O)Nc5cc(C(F)(F)F)ccn5)cc4)c4c(N)ncc(Cl)n34)C2)COC1 [Example 505, 4-(8-amino-5-chloro-3-{(2R)-4-[(3-methyloxetan-3-yl)carbonyl]morpholin-2-yl}imidazo[1,5-a]pyrazin-1-yl)-N-[4-(trifluoromethyl)pyridin-2-yl]benzamide] | > 8.00
Cn1cc(CN2C[C@H](c3nc(-c4ccc(C(=O)Nc5cc(C(F)(F)F)ccn5)cc4)c4c(N)nccn34)OC[C@@H]2CO)cn1 [Example 548, 4-(8-amino-3-{(2R,5S)-5-(hydroxymethyl)-4-[(1-methyl-1H-pyrazol-4-yl)methyl]morpholin-2-yl}imidazo[1,5-a]pyrazin-1-yl)-N-[4-(trifluoromethyl)pyridin-2-yl]benzamide, TFA salt] | > 8.00
Cc1cnc(N)c2c(-c3ccc(C(=O)Nc4cc(C(F)(F)F)ccn4)cc3)nc([C@@H]3CCCN(C(=O)C4(C)COC4)C3)n12 [Example 453, 4-(8-amino-5-methyl-3-{(3R)-1-[(3-methyloxetan-3-yl)carbonyl]piperidin-3-yl}imidazo[1,5-a]pyrazin-1-yl)-N-[4-(trifluoromethyl)pyridin-2-yl]benzamide] | > 8.00
Cc1ccnc(NC(=O)c2ccc(-c3nc([C@H]4CC[C@H](C(F)(F)F)N(C(=O)C5CC5)C4)n4ccnc(N)c34)cc2)c1 [Example 425, 4-{8-amino-3-[(3S,6R)-1-(cyclopropylcarbonyl)-6-(trifluoromethyl)piperidin-3-yl]imidazo[1,5-a]pyrazin-1-yl}-N-(4-methylpyridin-2-yl)benzamide] | > 8.00
CC1(C(=O)N2CCC[C@@H](c3nc(-c4ccc(C(=O)Nc5cc(OC(F)F)ccn5)cc4F)c4c(N)nccn34)C2)COC1 [Example 478, 4-(8-amino-3-{(3R)-1-[(3-methyloxetan-3-yl)carbonyl]piperidin-3-yl}imidazo[1,5-a]pyrazin-1-yl)-N-[4-(difluoromethoxy)pyridin-2-yl]-3-fluorobenzamide] | > 8.00
CCN1C[C@H](c2nc(-c3ccc(C(=O)Nc4cc(C(F)(F)F)ccn4)cc3)c3c(N)nccn23)OC[C@@H]1CO [Example 549, 4-{8-amino-3-[(2R,5S)-4-ethyl-5-(hydroxymethyl)morpholin-2-yl]imidazo[1,5-a]pyrazin-1-yl}-N-[4-(trifluoromethyl)pyridin-2-yl]benzamide, TFA salt] | > 8.00
COc1ccnc(NC(=O)c2ccc(-c3nc([C@@H]4CCCN(C(=O)C5(C)COC5)C4)n4ccnc(N)c34)cc2)n1 [Example 361, 4-(8-amino-3-{(3R)-1-[(3-methyloxetan-3-yl)carbonyl]piperidin-3-yl}imidazo[1,5-a]pyrazin-1-yl)-N-(4-methoxypyrimidin-2-yl)benzamide] | 6.00 to 7.00

Further lines, results first:

pIC50 | SMILES
> 8.00 | Cc1ccnc(NC(=O)c2ccc(-c3nc([C@@H]4CCCN(C(=O)C5(C)COC5)C4)n4c(Cl)cnc(N)c34)c(F)c2)c1 [Example 448, 4-(8-amino-5-chloro-3-{(3R)-1-[(3-methyloxetan-3-yl)carbonyl]piperidin-3-yl}imidazo[1,5-a]pyrazin-1-yl)-3-fluoro-N-(4-methylpyridin-2-yl)benzamide]
> 8.00 | COCC(=O)N1CCC[C@@H](c2nc(-c3ccc(C(=O)Nc4cc(C(F)(F)F)ccn4)cc3)c3c(N)nccn23)C1 [Example 340, 4-{8-amino-3-[(3R)-1-(methoxyacetyl)piperidin-3-yl]imidazo[1,5-a]pyrazin-1-yl}-N-[4-(trifluoromethyl)pyridin-2-yl]benzamide]
> 8.00 | Nc1ncnc2c1c(-c1ccc(C(=O)Nc3cc(C(F)(F)F)ccn3)cc1)nn2[C@H]1CCCc2[nH]ncc21 [Example 555, 4-{4-amino-1-[(4S)-4,5,6,7-tetrahydro-1H-indazol-4-yl]-1H-pyrazolo[3,4-d]pyrimidin-3-yl}-N-[4-(trifluoromethyl)pyridin-2-yl]benzamide, TFA salt]
